Source: the NIST ThermoML archive (doi:10.1016/j.jct.2018.07.026)

How the values were obtained:
[1] = molar heat capacity at constant pressure; conditions: 78.8 kPa, Crystal, DSC
[2] = Molar enthalpy of transition or fusion; conditions: Crystal 1; DSC

O=C(O)c1ccc([N+](=O)[O-])cc1C(=O)O [4-nitrophthalic acid]
[1]
Conditions	molar heat capacity at constant pressure [J/K/mol]
295.15 K	229.53
296.15 K	230.9
297.15 K	232.06
298.15 K	233.01
299.15 K	233.22
300.15 K	234.59
301.15 K	236.28
302.15 K	237.02
303.15 K	237.97
304.15 K	239.13
305.15 K	239.66
306.15 K	240.19
307.15 K	240.5
308.15 K	240.61
309.15 K	240.93
310.15 K	242.51
311.15 K	241.24
312.15 K	242.62
313.15 K	243.57
314.15 K	244.09
315.15 K	244.83
316.15 K	245.36
317.15 K	246.1
318.15 K	246.2
319.15 K	246.94
320.15 K	248
321.15 K	248.74
322.15 K	249.37
323.15 K	250.22
324.15 K	250.95
325.15 K	251.69
326.15 K	252.22
327.15 K	252.64
328.15 K	253.38
329.15 K	254.02
330.15 K	254.54
331.15 K	255.07
332.15 K	255.71
333.15 K	256.23
334.15 K	256.76
335.15 K	257.5
336.15 K	258.34
337.15 K	256.97
338.15 K	258.45
339.15 K	258.98
340.15 K	259.4
341.15 K	259.93
342.15 K	260.67
343.15 K	261.41
344.15 K	261.72
345.15 K	262.25
346.15 K	262.78
347.15 K	263.52
348.15 K	263.94
349.15 K	264.47
350.15 K	264.99
351.15 K	265.42
352.15 K	266.05
353.15 K	266.26
354.15 K	266.79
355.15 K	267.32
356.15 K	267.74
357.15 K	267.95
358.15 K	268.58
359.15 K	268.9
360.15 K	269.64
361.15 K	269.85
362.15 K	270.27
363.15 K	270.59
364.15 K	271.12
365.15 K	271.86
366.15 K	272.17
367.15 K	272.81
368.15 K	273.23
369.15 K	274.07
370.15 K	274.39
371.15 K	275.02
372.15 K	275.23
373.15 K	275.66
374.15 K	276.29
375.15 K	276.61
376.15 K	277.03
377.15 K	277.56
378.15 K	278.51
379.15 K	279.03
380.15 K	279.56
381.15 K	280.3
382.15 K	280.83
383.15 K	281.57
384.15 K	282.1
385.15 K	282.84
386.15 K	283.26
387.15 K	284.21
388.15 K	284.95
389.15 K	285.37
390.15 K	286.64
391.15 K	287.48
392.15 K	288.22
393.15 K	288.32
394.15 K	289.27
395.15 K	290.33

Conditions	mass density [kg/m3]
298.15 K, 101.33 kPa, Crystal, Pycnometric method	1647

Conditions	Molar enthalpy of transition or fusion [kcal/mol]	Normal melting temperature [°C]
Crystal 1, DTA	–	167
[2]	8.84	–
